The OPERA property sets (Mansouri et al. 2018)
≈ marks a conversion by molar mass, not a printed value.

Structure (SMILES)	solubility (25 °C)	further results
FC(F)(F)C(Cl)Br (stereo not given)	19.8 mM (≈ 3900 µg/mL)	
CCCl	88 mM (≈ 5680 µg/mL)	
FC(F)(Cl)CCl		solubility (24 °C): 6.3 mM (≈ 850 µg/mL)
CCBr	82 mM (≈ 8940 µg/mL)	
FC(F)(Br)C(F)(F)Br	0.0115 mM (≈ 3 µg/mL)	
ClCC(Cl)(Cl)Cl	6.38 mM (≈ 1070 µg/mL)	
BrC(Br)C(Br)Br	1.91 mM (≈ 659 µg/mL)	
ClCC(Cl)Cl	33.1 mM (≈ 4420 µg/mL)	
CC(F)(Cl)Cl	3.59 mM (≈ 420 µg/mL)	
ClCCBr	48.1 mM (≈ 6900 µg/mL)	
CCI	25.1 mM (≈ 3910 µg/mL)	
ClC(Br)C(Cl)Br (stereo not given)		solubility (20 °C): 2.73 mM (≈ 700 µg/mL)
ClC(Cl)C(Cl)(Cl)Cl	2.37 mM (≈ 480 µg/mL)	
CC(Cl)(Cl)Cl	11.2 mM (≈ 1490 µg/mL)	
BrCC(Br)Br		solubility (20 °C): 1.87 mM (≈ 500 µg/mL)
ClC(Br)CBr (stereo not given)		solubility (20 °C): 2.79 mM (≈ 620 µg/mL)
C=C(Cl)Cl	23.2 mM (≈ 2250 µg/mL)	
FC(F)(F)C(Cl)Cl	13.7 mM (≈ 2100 µg/mL)	
ClC(Cl)=C(Cl)Cl	1.21 mM (≈ 200 µg/mL)	
FCCCl	296 mM (≈ 24400 µg/mL)	
